Values of other authors as cited in patent publication US20170209405A1, “APPLICATION OF COMPOUND MIXTURES TO CONTROL OXIDATION” (priority 2016, published 2017).

Key:
[1] = adults
[2] = system: sperm DNA damage (DNA-strand breaks); settings: men aged 45 and up, highest dosages of vitamin C (up to 700 mg daily)

Structure (SMILES)	dose above which it may be toxic to the liver [1]	less DNA damage than those who took less of the supplements [2] [%]
NC(=O)c1cccnc1 [nicotinamide]	exceeding 3 g/day	
O=C1O[C@H]([C@@H](O)CO)C(O)=C1O [vitamin C]		20
